Reference: patent US20030017186A1, “Carboxylic acid fluorides as pesticides” (priority 1999, published 2003)

Key:
Assay type in all cases: in vivo
[1] = test system: House longhorn beetle (Hylotrupes bajulus); test: Fumigation test in glass vessel, house longhorn beetles; details: HYLOBA beetles; Example 7; ACF 53.0/54.6/0 g/m^3, second gas (SF) 43.6/41.4/39.8 g/m^3 (1st/2nd/3rd fumigation); 20.0/20.2/19.8 C.
Excerpt: (§1) b1) House longhorn beetle (Hylotrupes bajulus)=HYLOBA
(§2) The test organisms, separated by species, were placed into a glass vessel measuring 30 cm×30 cm×60 cm, which was sealed with a glass lid so as to be airtight. The adults and the larvae of the mealworm beetle (Tenebrio molitor) and the broad-horned flour beetle (Gnathocerus cornutus) were placed into small glass vessels approximately 5 cm in diameter, which were closed with a gauze lid and in which they could freely move about. The larvae of the rice weevil had burrowed into seeds of grain. The wood pest larvae were inserted into small blocks of wood measuring 5 cm×2.5 cm×2 cm. The openings were sealed with wads of cotton wool. Only one each of the larvae of the house longhorn beetle (Hylotrupes bajulus) was inserted into a piece of wood, while 6-8 larvae of the common furniture beetle (Anobium punctatum) were inserted into each piece of wood.
(§3) The respective gas was then introduced into the fumigation vessel through a gas line from a gas tank that contained the specified amount of gas. After a defined time period, the fumigation vessel was purged with compressed air. The discharged gas was purified by an attached gas scrubber.
(§4) The beetles were observed until they died. This point was recorded for each species. The larvae of the wood pests as well as the larvae of the rice weevil (Sitophilus oryzae) had to be picked out of the wood or the grain to check their condition. If any of the animals were still alive, the wooden test blocks remaining in the vessel were fumigated again and were reexamined after the corresponding time span had elapsed. The same number of animals in the untreated control was also checked at each point.
(§5) The vitality of the animals was checked at certain time intervals. The beetles could be observed through the fumigation vessel. This was also true for the larvae of the mealworm beetle and the broad-horned flour beetle. The wooden test blocks of the wood pest larvae were opened with hammer and chisel. Tweezers were used to pull the rice weevil larvae out of the grain seeds. The exact time intervals and the number of the evaluated pests were documented in the test results.

[2] = test system: Broad-horned flour beetle (Gnathocerus cornutus); test: Fumigation test in glass vessel, broad-horned flour beetles; details: GNATCO beetles; Example 7; ACF 53.0/54.6/0 g/m^3, second gas (SF) 43.6/41.4/39.8 g/m^3 (1st/2nd/3rd fumigation); 20.0/20.2/19.8 C.
Excerpt: (§6) a3) Broad-horned flour beetle (Gnathocerus cornutus)=GNATCO
as §2, §3, §4, §5

[3] = test system: Broad-horned flour beetle (Gnathocerus cornutus) larvae; test: Fumigation test in glass vessel, broad-horned flour beetle larvae; details: GNATCO larvae; Example 7; ACF 53.0/54.6/0 g/m^3, second gas (SF) 43.6/41.4/39.8 g/m^3 (1st/2nd/3rd fumigation); 20.0/20.2/19.8 C.
Excerpt: as §6, §2, §3, §4, §5

[4] = test system: Mealworm beetle (Tenebrio molitor); test: Fumigation test in glass vessel, mealworm beetles; details: TENEMO beetles; Example 7; ACF 53.0/54.6/0 g/m^3, second gas (SF) 43.6/41.4/39.8 g/m^3 (1st/2nd/3rd fumigation); 20.0/20.2/19.8 C.
Excerpt: (§7) a1) Mealworm beetle (Tenebrio molitor)=TENEMO
as §2, §3, §4, §5

[5] = test system: Saw-toothed grain beetle (Oryzaephilus surinamensis); test: Fumigation test in glass vessel, saw-toothed grain beetles; details: ORYZSA beetles; Example 7; ACF 53.0/54.6/0 g/m^3, second gas (SF) 43.6/41.4/39.8 g/m^3 (1st/2nd/3rd fumigation); 20.0/20.2/19.8 C.
Excerpt: a4) Saw-toothed grain beetle (Oryzaephilus surinamensis)=ORYZSA
as §2, §3, §4, §5

[6] = test system: House longhorn beetle (Hylotrupes bajulus) larvae; test: Fumigation test in glass vessel, house longhorn beetle larvae in wood blocks; details: HYLOBA larvae in wood blocks; Example 7; ACF 53.0/54.6/0 g/m^3, second gas (SF) 43.6/41.4/39.8 g/m^3 (1st/2nd/3rd fumigation); 20.0/20.2/19.8 C.
Excerpt: as §1, §2, §3, §4, §5

[7] = test system: Rice weevil (Sitophilus oryzae); test: Fumigation test in glass vessel, rice weevils; details: SITTOR beetles; Example 7; ACF 53.0/54.6/0 g/m^3, second gas (SF) 43.6/41.4/39.8 g/m^3 (1st/2nd/3rd fumigation); 20.0/20.2/19.8 C.
Excerpt: a2) Rice weevil (Sitophilus oryzae)=SITTOR
as §2, §3, §4, §5

[8] = test system: Common furniture beetle (Anobium punctatum) larvae; test: Fumigation test in glass vessel, common furniture beetle larvae in wood blocks; details: ANOBPU larvae in wood blocks; Example 7; ACF 53.0/54.6/0 g/m^3, second gas (SF) 43.6/41.4/39.8 g/m^3 (1st/2nd/3rd fumigation); 20.0/20.2/19.8 C.
Excerpt: b2) Common furniture beetle (Anobium punctatum)=[…]
as §2, §3, §4, §5

[9] = test system: Mealworm beetle (Tenebrio molitor) larvae; test: Fumigation test in glass vessel, mealworm beetle larvae; details: TENEMO larvae; Example 7; ACF 53.0/54.6/0 g/m^3, second gas (SF) 43.6/41.4/39.8 g/m^3 (1st/2nd/3rd fumigation); 20.0/20.2/19.8 C.
Excerpt: as §7, §2, §3, §4, §5

SMILES: O=C(F)C(F)(F)Cl [CFACF, chlorodifluoroacetyl fluoride]
- Number alive, 30 min. after 1st Fumigation [1]: 0
- Number dead, 30 min. after 1st Fumigation [1]: 6
- Number alive, 30 min. after 1st Fumigation [2]: 0
- Number dead, 30 min. after 1st Fumigation [2]: 15
- Number alive, 30 min. after 1st Fumigation [3]: 7
- Number alive, 1 hr. after 1st Fumigation [3]: 7
- Number alive, 3 hrs. after 1st Fumigation [3]: 0
- Number dead, 30 min. after 1st Fumigation [3]: 8
- Number dead, 1 hr. after 1st Fumigation [3]: 8
- Number dead, 3 hrs. after 1st Fumigation [3]: 15
- Number alive, 30 min. after 1st Fumigation [4]: 10
- Number alive, 1 hr. after 1st Fumigation [4]: 10
- Number alive, 3 hrs. after 1st Fumigation [4]: 10
- Number alive, 6 hrs after 1st Fumigation [4]: 5
- Number dead, 30 min. after 1st Fumigation [4]: 0
- Number dead, 1 hr. after 1st Fumigation [4]: 0
- Number dead, 3 hrs. after 1st Fumigation [4]: 0
- Number dead, 6 hrs after 1st Fumigation [4]: 5
- Number alive, 30 min. after 1st Fumigation [5]: 0
- Number dead, 30 min. after 1st Fumigation [5]: 15
- Number alive, 1 hr. after 1st Fumigation [6]: 5
- Number alive, 3 hrs. after 1st Fumigation [6]: 5
- Number alive, 6 hrs after 1st Fumigation [6]: 5
- Number dead, 1 hr. after 1st Fumigation [6]: 0
- Number dead, 3 hrs. after 1st Fumigation [6]: 0
- Number dead, 6 hrs after 1st Fumigation [6]: 0
- Number alive, 30 min. after 1st Fumigation [7]: 7
- Number alive, 1 hr. after 1st Fumigation [7]: 7
- Number alive, 3 hrs. after 1st Fumigation [7]: 0
- Number dead, 30 min. after 1st Fumigation [7]: 8
- Number dead, 1 hr. after 1st Fumigation [7]: 8
- Number dead, 3 hrs. after 1st Fumigation [7]: 15
- Number alive, 1 hr. after 1st Fumigation [8]: 6
- Number alive, 3 hrs. after 1st Fumigation [8]: 3
- Number alive, 6 hrs after 1st Fumigation [8]: 4
- Number dead, 1 hr. after 1st Fumigation [8]: 0
- Number dead, 3 hrs. after 1st Fumigation [8]: 3
- Number dead, 6 hrs after 1st Fumigation [8]: 2
- Number alive, 30 min. after 1st Fumigation [9]: 10
- Number alive, 1 hr. after 1st Fumigation [9]: 10
- Number alive, 3 hrs. after 1st Fumigation [9]: 0
- Number dead, 30 min. after 1st Fumigation [9]: 0
- Number dead, 1 hr. after 1st Fumigation [9]: 0
- Number dead, 3 hrs. after 1st Fumigation [9]: 10
